{"source": "patent US12083109B2", "about": "“Neurokinin antagonists and uses thereof” (California Institute of Technology, priority 2017, dated 2024)", "target": "T1, hM3DREADD in Tac2+ neurons (Homo sapiens, UniProt P20309, A239G/Y149C)", "T1 construct": "host or cells: Tac2+ neurons of group-housed Tac2-Cre mice, transduced in vivo by intravenous AAV-PHP.B-hSyn-DIO-hM3D-mCherry, with or without the Tac2 cDNA virus", "T1 sequence (P20309 whole entry Y149C/A239G)": "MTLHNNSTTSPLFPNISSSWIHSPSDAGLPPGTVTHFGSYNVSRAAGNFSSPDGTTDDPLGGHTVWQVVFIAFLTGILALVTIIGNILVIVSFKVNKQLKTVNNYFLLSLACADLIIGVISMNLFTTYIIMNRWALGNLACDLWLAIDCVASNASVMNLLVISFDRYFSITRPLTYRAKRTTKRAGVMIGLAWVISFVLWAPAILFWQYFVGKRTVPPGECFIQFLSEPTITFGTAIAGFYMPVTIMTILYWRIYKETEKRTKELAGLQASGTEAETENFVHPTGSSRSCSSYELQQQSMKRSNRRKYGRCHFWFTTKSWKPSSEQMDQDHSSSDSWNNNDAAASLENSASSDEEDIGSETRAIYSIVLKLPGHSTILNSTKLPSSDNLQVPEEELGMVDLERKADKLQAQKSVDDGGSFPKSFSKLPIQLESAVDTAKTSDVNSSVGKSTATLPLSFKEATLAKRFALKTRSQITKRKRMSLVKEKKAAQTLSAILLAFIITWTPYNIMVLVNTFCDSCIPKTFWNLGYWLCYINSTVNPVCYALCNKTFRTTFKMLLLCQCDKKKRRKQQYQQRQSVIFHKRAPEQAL", "test": "Behavioral assays in group housed Tac2-Cre mice, CNO activation (hM3DREADD) with or without Tac2 cDNA", "format": "in vivo, mouse", "description": "The AAV-hSyn-DIO-Tac2-P2A-mCherry, AAV-hSyn-DIO-hM3D-mCherry, and AAV-hSyn-DIO-mCherry recombinant AAV genomes were separately packaged into the AAV-PHP.B capsid by triple transfection of HEK293T cells and purified with iodixanol step gradients as previously described (Deverman et al., 2016; incorporated by reference in its entirety). 5×10^11 vector genomes (vg) of each virus were administered intravenously (via the retro-orbital sinus) to Tac2-Cre animals individually or in combination. To equalize the amount of virus given to each mouse, 5×10^11 vg of AAV-PHP.B-hSyn-DIO-mCherry was administered to each animal to bring the amount of virus up to the amount injected in the double Tac2^+ hM3DREAAD group. Each animal received a total vector dose of 1×10^12 vg.\nMice were administered the Nk3R antagonist osanetant (Axon Medchem, Axon 1533) either systemically or intra-brain region. Osanctant was dissolved in saline with 0.1% Tween 20 (vehicle). For systemic administration mice received an intraperitoneal (i.p.) injection (5 mg/kg) 20 minutes prior to behavioral testing. For microinfusions, guide cannulas were removed from mice and replaced with injector cannulas (Plastics One), which protruded 0.5 mm from the tip of the guide cannula. Injectors were attached to 5 μl Hamilton syringes with PE tubing (Plastics One) and mounted on a microinfusion pump (Harvard Apparatus) for controlled infusion of osanetant (0.3 μl vehicle with 375 ng dose per site injected over 6 minutes). For experiments using systemic administration of clozapine-N-oxide (CNO), CNO (Enzo Life Sciences-Biomol, BML-NS105-0005) was dissolved in saline (9 g/L NaCl) and injected (i.p.) at 5 mg/kg for hM4DREADD silencing or 2 mg/kg for hM3DREADD activation 20 minutes prior to behavioral testing. CNO was also administered chronically in drinking water (0.5 mg CNO/100 ml water).\nThese viruses were intravenously injected (individually or in combination) into GH Tac2-Cre mice (FIGS. 14A-T). […]", "data": [{"smiles": "C[N+]1([O-])CCN(C2=Nc3cc(Cl)ccc3Nc3ccccc32)CC1", "note": "[CNO, clozapine-N-oxide]", "values": [{"measurement": "SIS-like behavioral effects (increased aggression, persistent freezing to threats)", "setting": "group housed Tac2-Cre mice, Tac2 cDNA plus hM3DREADD viruses, CNO in drinking water 2 weeks and 2 mg/kg i.p. before test", "value": "recapitulated key behavioral effects of SIS"}, {"measurement": "SIS-like behavioral effects", "setting": "group housed Tac2-Cre mice, activation of Tac2+ neurons on its own (hM3DREADD, CNO)", "value": "insufficient"}, {"measurement": "SIS-like behavioral effects", "setting": "group housed control mice, mCherry-only virus, treated with CNO", "value": "No such effects"}]}]}
